SMILES strings stand for the structures. Like-named read-outs stand apart in the source and are kept apart here. Some results are limits rather than exact numbers.

In one data set the test system is TNF-α induced IL-6. The experiment in a line: TNF-α-induced IL-6 production determined by IL-6 ELISA. The following applies: for activity at 10 µM: Homo sapiens, 24 h; for % IL6 production compare to TNF stimulation of IL6 (100%), HAEC, IL6, @ 5 uM / % IL6 production compare to TNF stimulation of IL6 (100%), Compds tested @ 10 uM HAEC, IL6: TNF stimulated; for % IL6 production compare to TNF stimulation of IL6 (100%), HAEC, IL6, @ 5 uM: compound 5 uM (bracketed value); for % IL6 production compare to TNF stimulation of IL6 (100%), Compds tested @ 10 uM HAEC, IL6: compound 10 uM. Type of data set: cell-based. The method, boiled down:
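Human aortic endothelial cells grown to ≥90% confluence, then treated with compounds and stimuli in serum-free medium with 0.2% albumin. Secreted IL-6 in collected media measured by sandwich ELISA (2 ug/ml capture, 200 ng/ml biotinylated detection antibody, streptavidin-HRP), read at 450 nm.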
For orientation: An ELISA detects its analyte on a solid surface through an enzyme-linked reagent.

A further data set relates to endothelial cells. Kind of data set: Toxicity to endothelial cells when AGE stimulated. Type of data set: cell-based. On the procedure: In general, to determine if there is cytotoxic activity associated with a compound, cells of a particular type, in a growing stage or a quiescient stage, are treated with the compound of interest. Various parameters of cell death or cessation are used to measure the effects of the compound. For example, the amount of nucleic acid or protein synthesis can be measured or visual observation of the state of the cells, such as release from the substrate, can be used to measure the state of the cells.
All treatments, compound-added and controls were carried out in serum free media containing 0.2% albumin. Media from all conditions were collected and used for IL-6 ELISA.

The mark [1] stands for this setting: read-out: Inhibition of TNF-induced IL6 production.
Where [2] appears, read: endothelial cells, AGE stimulated.

The term melting point denotes the temperature, or range, at which the solid turns liquid. `COc1ccc(Nc2nc(NC(C)C)nc(N(C)C3CCNCC3)n2)cc1Cl` [Compound 107, N^2-(3-chloro-4-methoxy-phenyl)-N^4-isopropyl-N^6-methyl-N^6-piperidin-4-yl-1,3,5-triazine-2,4,6-triamine] showed a melting point of 129 °C. The “% IL6 production compare to TNF stimulation of IL6 (100%), @ 5 uM” value with TNF-α induced IL-6 (HAEC, 5 uM compound, TNF stimulation = 100%) is 60 @ 5 uM %. Besides, the activity at 10 µM in the data set on TNF-α induced IL-6 (setting [1]) lay in the range of 50 to 75%.
In the case of `COc1ccc(Nc2nc(NCCCCCO)nc(N(C)C3CCNCC3)n2)cc1Cl` [Compound 109, 5-[4-(3-chloro-4-methoxy-phenylamino)-6-(methyl-piperidin-4-yl-amino)-1,3,5-triazin-2-ylamino]-pentan-1-ol], the melting point is 101 °C. Also, the activity at 10 µM in the data set on TNF-α induced IL-6 (read-out: % IL6 production compare to TNF stimulation of IL6 (100%), Compds tested @ 10 uM HAEC, IL6) is 40%. The activity at 10 µM in the data set with TNF-α induced IL-6 (setting [1]) fell in the range of 25 to 50%.
With `COc1ccc(Nc2nc(Nc3ccc(OC)c(Cl)c3)nc(NC3CCCCCC3)n2)cc1Cl` [Compound 122, N,N′-Bis-(3-chloro-4-methoxy-phenyl)-N″-cycloheptyl-[1,3,5]triazine-2,4,6-triamine], the melting point is 183 °C.
On the same count and under the same terms, the same measure for `COc1ccc(Nc2nc(Cl)nc(Cl)n2)cc1F` [Compound 124, (4,6-Dichloro-[1,3,5]triazin-2-yl)-(3-fluoro-4-methoxy-phenyl)-amine]: 134 °C.
In turn, `COc1ccc(Nc2nc(Cl)nc(NCC3CCCCC3)n2)cc1F` [Compound 125, 6-Chloro-N-cyclohexylmethyl-N′-(3-fluoro-4-methoxy-phenyl)-[1,3,5]triazine-2,4-diamine] yielded a melting point of 156 °C.
With `CCN1CCCC1CNc1nc(NCC2CCCCC2)nc(Nc2ccc(OC)c(F)c2)n1` (stereo not drawn) [Compound 126, N-Cyclohexylmethyl-N′-(1-ethyl-pyrrolidin-2-ylmethyl)-N″-(3-fluoro-4-methoxy-phenyl)-[1,3,5]triazine-2,4,6-triamine], the melting point stood at 72 °C.
Consider `COc1ccc(Nc2nc(NC3CCCCCC3)nc(NC3CCN(Cc4ccccc4)CC3)n2)cc1Cl` [Compound 134, N-(1-Benzyl-piperidin-4-yl)-N′-(3-chloro-4-methoxy-phenyl)-N″-cycloheptyl-[1,3,5]triazine-2,4,6-dianmine], for which, in the data set on TNF-α induced IL-6 (HAEC), the “% IL6 production compare to TNF stimulation of IL6 (100%), HAEC, IL6, @ 5 uM” value (from here on “% IL6 production compare … IL6, @ 5 uM”) turned out to be 55% and the “% IL6 production compare to TNF stimulation of IL6 (100%), Compds tested @ 10 uM HAEC, IL6” value is on record as “total cell death”. Besides, the “Toxic (AGE-treated)” value in the data set on endothelial cells (setting [2]) was “toxic”.
For `COc1ccc(Nc2nc(NC3CCCCCC3)nc(NC3CCNCC3)n2)cc1Cl` [Compound 135, N^2-(3-chloro-4-methoxy-phenyl)-N^4-cycloheptyl-N^6-piperidin-4-yl-1,3,5-triazine-2,4,6-triamine] the same measures were 60%, “total cell death” and “toxic”.
For the compound `CN1CCC(N(C)c2nc(Nc3ccc(O)c(Cl)c3)nc(NC3CCCCCC3)n2)CC1` [Compound 138, 2-Chloro-4-{4-cycloheptylamino-6-[methyl-(1-methyl-piperidin-4-yl)-amino]-[1,3,5]triazin-2-ylamino}-phenol], in the data set with TNF-α induced IL-6 (HAEC), the “% IL6 production compare to TNF stimulation of IL6 (100%), Compds tested @ 10 uM HAEC, IL6” value was “toxic”. Besides, the “Toxic (AGE-treated)” value in the data set with endothelial cells is recorded as “toxic”.
`COc1ccc(Nc2nc(NC3CCCCCC3)nc(N(C)C3CCNCC3)n2)cc1Cl` [Compound 146, N^2-(3-chloro-4-methoxy-phenyl)-N^4-cycloheptyl-N^6-methyl-N^6-piperidin-4-yl-1,3,5-triazine-2,4,6-triamine] showed a melting point of 114 to 116 °C.
In turn, `COc1ccc(Nc2nc(O)nc(NC3CCCCCC3)n2)cc1Cl` [Compound 147, 4-(3-Chloro-4-methoxy-phenylamino)-6-cycloheptylamino-1,3,5-triazin-2-ol] had a melting point of more than 310 °C.
On to `CCN1CCCC1CNc1nc(Nc2ccc(OC)c(Cl)c2)nc(NC2CN3CCC2CC3)n1` (stereo not drawn) [Compound 148, N-(1-Aza-bicyclo[2.2.2]oct-3-yl)-N′-(3-chloro-4-methoxy-phenyl)-N″-(1-ethyl-pyrrolidin-2-ylmethyl)-[1,3,5]triazine-2,4,6-triamine], for which, in the data set on TNF-α induced IL-6 (HAEC), the “% IL6 production compare … IL6, @ 5 uM” value stood at 60% and the “% IL6 production compare to TNF stimulation of IL6 (100%), Compds tested @ 10 uM HAEC, IL6” value is “total cell death”. The “Toxic (AGE-treated)” value with endothelial cells is listed as “toxic”.
As to `COc1ccc(Nc2nc(NC3CCCCCC3)nc(N(C)C3CCNCC3)n2)cc1F` [Compound 159, N^2-Cycloheptyl-N^4-(3-fluoro-4-methoxy-phenyl)-N^6-methyl-N^6-piperidin-4-yl-1,3,5-triazine-2,4,6-triamine], in the data set with TNF-α induced IL-6 (HAEC), the “% IL6 production compare … IL6, @ 5 uM” value is “total cell death @ 5 and 10”; the “% IL6 production compare to TNF stimulation of IL6 (100%), Compds tested @ 10 uM HAEC, IL6” value is “total cell death @ 5 and 10”. In addition, the “Toxic (AGE-treated)” value in the data set with endothelial cells was “toxic”.
The compound `COc1ccc(Nc2nc(NC3CCCCCC3)nc(OC3CCCN(C(C)=O)C3)n2)cc1Cl` (stereo not drawn) [Compound E20, 1-[3-{4-(3-chloro-4-methoxyanilino)-6-cycloheptylamino-1,3,5-triazine-2-yloxy}piperidino]-1-ethanone] gave a melting point of 138 to 140 °C.
The same measure, in the same setting: as for `COc1ccc(Nc2nc(NC3CCCCCC3)nc(OC(C)C)n2)cc1Cl` [Compound E21, N^2-(3-chloro-4-methoxyphenyl)-N^4-cycloheptyl-6-isopropoxy-1,3,5-triazine-2,4-diamine], the figure is 136 to 138 °C; as for `COc1ccc(Nc2nc(NC3CCCCCC3)nc(OCC3CCCN3)n2)cc1Cl` (stereo not drawn) [Compound E22, N^2-(3-chloro-4-methoxyphenyl)-N^4-cycloheptyl-6-(2-azolanylmethoxy)-1,3,5-triazine-2,4-diamine], 84 to 86 °C; as for `COc1ccc(Nc2nc(NC3CCCCCC3)nc(Oc3ccccc3F)n2)cc1Cl` [Compound E28, N^2-(3-chloro-4-methoxyphenyl)-N^4-cycloheptyl-6-(2-fluorophenoxy)-1,3,5-triazine-4,2-diamine], 98 to 100 °C.

The values above are taken from US7332489B2, “Methods and compositions of novel triazine compounds” (Reddy US Therapeutics, Inc., priority 2003, dated 2008).
